The nature of the series: WST-1 assay of EGCG oxidation delay by aptamer. It is filed as physicochemical. Particulars: for comparison of EGCG oxidation delay effect of aptamer K4 and aptamer K5: 20 μM aptamer, 500 μM EGCG, 30 minutes, WST-1 assay (FIG. 5); for concentration dependence of EGCG oxidation delay (reduction of WST-1 delayed): 5, 10 and 20 uM aptamer with EGCG, WST-1 assay (FIGS. 3 and 4); for oxidation of EGCG delayed: at 20 uM aptamer, 500 mM EGCG (so in the source), room temperature 30 minutes, WST-1, 440 nm absorbance measured for 16 hours (FIG. 3, FIG. 4). How it is done:
FIG. 1 is a graph showing the effect of delaying EGCG oxidation in aptamer K1 (SEQ ID NO: 1) to K9 (SEQ ID NO: 9) of the present invention. Nine types of aptamer K from aptamer K1 to aptamer K9 that bind to EGCG were prepared in the same manner as described above. After 20 μM aptamer K1 to K9 and 500 μM EGCG were reacted for 30 minutes, respectively, WST-1 assay was performed. The degree of delaying EGCG oxidation of each aptamer K was compared,
The aptamer (aptamers of SEQ ID NOs: 1 to 9) of the present invention reacting specifically with the EGCG obtained through the SELEX was dissolved in a folding buffer (1 mM MgCl2 in PBS) and then dissolved at 95° C.
After reacting 500 uM EGCG and one of the prepared 20 μM aptamers K1 to K9 and for 30 minutes, WST-1 assay was performed. The degree of EGCG oxidation delay of each aptamer K was compared.
500 mM EGCG and 5, 10, and 20 uM of the prepared aptamer K4 were reacted at room temperature for 30 minutes, respectively, and then WST-1 assay was performed. Prepared sample and WST-1([…]) was reacted to measure the formazan produced and with the plate reader, 440 nm absorbance was measured for 16 hours.
The aptamer K5 (aptamer of SEQ ID NO: 5) that specifically reacts with EGCG obtained through the SELEX was prepared in the same manner as described above and was tested for the effect of delaying EGCG oxidation.
Aptamers K4 and K5 binding to the EGCG were prepared in the same manner as described above. 20 μM aptamer K4, or aptamer K5, and 500 μM EGCG were reacted for 30 minutes, respectively, followed by WST-1 assay. It was confirmed that the EGCG oxidation delay effect of 20 μM aptamer K4 and aptamer K5 was similar (FIG. 5).
(In general: Tetrazolium assays rely on reduction of a dye to a coloured formazan, in cell work by metabolically active cells.)

As for “aptamer K4: DNA aptamer binding EGCG, 30 mer: CGACGACAGGAGGTGCGGCCCCGGCAGACC (DNA, backbone and methylation of C not given here)”, the “comparison of EGCG oxidation delay effect of aptamer K4 and aptamer K5” value is “similar”; the “concentration dependence of EGCG oxidation delay (reduction of WST-1 delayed)” value is reported as “delayed (about 33% at 20 uM) depending on the concentration”; the “oxidation of EGCG delayed” value was “about 33%”.
Turning to “aptamer K5: DNA aptamer binding EGCG, 29 mer: ACGCATGCCGGGCGCGCTCCCTGTCGTCC (DNA, backbone and methylation of C not given here)”, the “comparison of EGCG oxidation delay effect of aptamer K4 and aptamer K5” value is listed as “similar”; the “concentration dependence of EGCG oxidation delay (reduction of WST-1 delayed)” value is on record as “delayed (about 33% at 20 uM) depending on the concentration”; the “oxidation of EGCG delayed” value is “about 33%”. In addition, for the setting “listed as 1(5)”, the “concentration dependence of EGCG oxidation delay (reduction of WST-1 delayed)” value is “delayed depending on the concentration”.

Values taken from patent US20220002728A1, “METHOD FOR PREVENTING OXIDATION OF POLYPHENOL BY MEANS OF APTAMER, MATERIAL THEREOF, AND USE THEREOF” (Nexmos Co., LTD, priority 2018, published 2022).
